{"source": "paper PMC3082041", "about": "(Cancer Chemotherapy and Pharmacology, 2010)", "assay": "Plasma pharmacokinetics of TSU-68", "assay_type": "in vivo, human (Japanese patients)", "details": "for AUC(0-t) / Cmax / half-life / Tmax: human, oral", "data": [{"compound": "Cc1[nH]c(/C=C2\\C(=O)Nc3ccccc32)c(C)c1CCC(=O)O", "note": "[TSU-68, (Z)-3-[2,4-dimethyl-5-(2-oxo-1,2-dihydro-indol-3-ylidenemethyl)-1H-pyrrol-3-yl]-propionic acid]", "values": [{"measurement": "time to reach Cmax", "setting": "after the first dose, plasma", "result": "~ 2.5 h"}, {"measurement": "AUC(0-t)", "setting": "plasma, 200 mg/m2, AUC0–t, 200 mg/m^2, Day 1, 3 patients, plasma", "result": "45600 ± 21000", "unit": "ng·h/mL"}, {"measurement": "AUC(0-t)", "setting": "plasma, 200 mg/m2, AUC0–t, 200 mg/m^2, Day 8, 3 patients, plasma", "result": "20600 ± 6200", "unit": "ng·h/mL"}, {"measurement": "AUC(0-t)", "setting": "plasma, 200 mg/m2, AUC0–t, 200 mg/m^2, Day 29, 3 patients, plasma", "result": "21200 ± 9500", "unit": "ng·h/mL"}, {"measurement": "Cmax", "setting": "plasma, 200 mg/m2, Cmax, 200 mg/m^2, Day 1, 3 patients, plasma", "result": "10600 ± 6040", "unit": "ng/mL"}, {"measurement": "Cmax", "setting": "plasma, 200 mg/m2, Cmax, 200 mg/m^2, Day 8, 3 patients, plasma", "result": "6670 ± 3700", "unit": "ng/mL"}, {"measurement": "Cmax", "setting": "plasma, 200 mg/m2, Cmax, 200 mg/m^2, Day 29, 3 patients, plasma", "result": "6350 ± 3780", "unit": "ng/mL"}, {"measurement": "half-life", "setting": "plasma, 200 mg/m2, T1/2, 200 mg/m^2, Day 1, 3 patients, plasma", "result": "8.03 ± 3.82", "unit": "h"}, {"measurement": "half-life", "setting": "plasma, 200 mg/m2, T1/2, 200 mg/m^2, Day 8, 3 patients, plasma", "result": "4.8 ± 2.14", "unit": "h"}, {"measurement": "half-life", "setting": "plasma, 200 mg/m2, T1/2, 200 mg/m^2, Day 29, 3 patients, plasma", "result": "3.59 ± 1.71", "unit": "h"}, {"measurement": "Tmax", "setting": "plasma, 200 mg/m2, Tmax, 200 mg/m^2, Day 1, 3 patients, plasma", "result": "2.3 ± 1.5", "unit": "h"}, {"measurement": "Tmax", "setting": "plasma, 200 mg/m2, Tmax, 200 mg/m^2, Day 8, 3 patients, plasma", "result": "1.7 ± 0.3", "unit": "h"}, {"measurement": "Tmax", "setting": "plasma, 200 mg/m2, Tmax, 200 mg/m^2, Day 29, 3 patients, plasma", "result": "1.7 ± 0.8", "unit": "h"}, {"measurement": "AUC(0-t)", "setting": "plasma, 400 mg/m2, AUC0–t, 400 mg/m^2, Day 1, 3 patients, plasma", "result": "58200 ± 16800", "unit": "ng·h/mL"}, {"measurement": "AUC(0-t)", "setting": "plasma, 400 mg/m2, AUC0–t, 400 mg/m^2, Day 8, 3 patients, plasma", "result": "25000 ± 9400", "unit": "ng·h/mL"}, {"measurement": "AUC(0-t)", "setting": "plasma, 400 mg/m2, AUC0–t, 400 mg/m^2, Day 29, 2 patients, plasma", "result": 22900, "unit": "ng·h/mL"}, {"measurement": "Cmax", "setting": "plasma, 400 mg/m2, Cmax, 400 mg/m^2, Day 1, 3 patients, plasma", "result": "11700 ± 3810", "unit": "ng/mL"}, {"measurement": "Cmax", "setting": "plasma, 400 mg/m2, Cmax, 400 mg/m^2, Day 8, 3 patients, plasma", "result": "7210 ± 1060", "unit": "ng/mL"}, {"measurement": "Cmax", "setting": "plasma, 400 mg/m2, Cmax, 400 mg/m^2, Day 29, 2 patients, plasma", "result": 6350, "unit": "ng/mL"}, {"measurement": "half-life", "setting": "plasma, 400 mg/m2, T1/2, 400 mg/m^2, Day 1, 3 patients, plasma", "result": "7.89 ± 4.04", "unit": "h"}, {"measurement": "half-life", "setting": "plasma, 400 mg/m2, T1/2, 400 mg/m^2, Day 8, 3 patients, plasma", "result": "3.53 ± 0.43", "unit": "h"}, {"measurement": "half-life", "setting": "plasma, 400 mg/m2, T1/2, 400 mg/m^2, Day 29, 2 patients, plasma", "result": 5.36, "unit": "h"}, {"measurement": "Tmax", "setting": "plasma, 400 mg/m2, Tmax, 400 mg/m^2, Day 1, 3 patients, plasma", "result": "2.5 ± 1.3", "unit": "h"}, {"measurement": "Tmax", "setting": "plasma, 400 mg/m2, Tmax, 400 mg/m^2, Day 8, 3 patients, plasma", "result": "1.8 ± 0.3", "unit": "h"}, {"measurement": "Tmax", "setting": "plasma, 400 mg/m2, Tmax, 400 mg/m^2, Day 29, 2 patients, plasma", "result": 1, "unit": "h"}, {"measurement": "AUC(0-t)", "setting": "plasma, 800 mg/m2, AUC0–t, 800 mg/m^2, Day 1, 6 patients, plasma", "result": "83300 ± 32700", "unit": "ng·h/mL"}, {"measurement": "AUC(0-t)", "setting": "plasma, 800 mg/m2, AUC0–t, 800 mg/m^2, Day 8, 5 patients, plasma", "result": "44600 ± 17300", "unit": "ng·h/mL"}, {"measurement": "AUC(0-t)", "setting": "plasma, 800 mg/m2, AUC0–t, 800 mg/m^2, Day 29, 4 patients, plasma", "result": "30000 ± 16700", "unit": "ng·h/mL"}, {"measurement": "Cmax", "setting": "plasma, 800 mg/m2, Cmax, 800 mg/m^2, Day 1, 6 patients, plasma", "result": "14600 ± 5650", "unit": "ng/mL"}, {"measurement": "Cmax", "setting": "plasma, 800 mg/m2, Cmax, 800 mg/m^2, Day 8, 5 patients, plasma", "result": "10600 ± 1830", "unit": "ng/mL"}, {"measurement": "Cmax", "setting": "plasma, 800 mg/m2, Cmax, 800 mg/m^2, Day 29, 4 patients, plasma", "result": "10700 ± 4690", "unit": "ng/mL"}, {"measurement": "half-life", "setting": "plasma, 800 mg/m2, T1/2, 800 mg/m^2, Day 1, 6 patients, plasma", "result": "9.93 ± 6.01", "unit": "h"}, {"measurement": "half-life", "setting": "plasma, 800 mg/m2, T1/2, 800 mg/m^2, Day 8, 5 patients, plasma", "result": "4.31 ± 2.72", "unit": "h"}, {"measurement": "half-life", "setting": "plasma, 800 mg/m2, T1/2, 800 mg/m^2, Day 29, 4 patients, plasma", "result": "4.37 ± 4.05", "unit": "h"}, {"measurement": "Tmax", "setting": "plasma, 800 mg/m2, Tmax, 800 mg/m^2, Day 1, 6 patients, plasma", "result": "2.8 ± 1.1", "unit": "h"}, {"measurement": "Tmax", "setting": "plasma, 800 mg/m2, Tmax, 800 mg/m^2, Day 8, 5 patients, plasma", "result": "1.5 ± 0.4", "unit": "h"}, {"measurement": "Tmax", "setting": "plasma, 800 mg/m2, Tmax, 800 mg/m^2, Day 29, 4 patients, plasma", "result": "2.1 ± 0.3", "unit": "h"}, {"measurement": "Cmax", "setting": "plasma, 1200 mg/m^2, Cmax, 1,200 mg/m^2, Day 1, 3 patients, plasma", "result": "16000 ± 1910", "unit": "ng/mL"}, {"measurement": "Cmax", "setting": "plasma, 1200 mg/m^2, Cmax, 1,200 mg/m^2, Day 8, 3 patients, plasma", "result": "8150 ± 4220", "unit": "ng/mL"}, {"measurement": "Cmax", "setting": "plasma, 1200 mg/m^2, Cmax, 1,200 mg/m^2, Day 29, 3 patients, plasma", "result": "6710 ± 884", "unit": "ng/mL"}, {"measurement": "half-life", "setting": "plasma, 1200 mg/m^2, T1/2, 1,200 mg/m^2, Day 1, 3 patients, plasma", "result": "8.33 ± 4.65", "unit": "h"}, {"measurement": "half-life", "setting": "plasma, 1200 mg/m^2, T1/2, 1,200 mg/m^2, Day 8, 3 patients, plasma", "result": "2.78 ± 0.9", "unit": "h"}, {"measurement": "half-life", "setting": "plasma, 1200 mg/m^2, T1/2, 1,200 mg/m^2, Day 29, 3 patients, plasma", "result": "4.84 ± 3.29", "unit": "h"}, {"measurement": "Tmax", "setting": "plasma, 1200 mg/m^2, Tmax, 1,200 mg/m^2, Day 1, 3 patients, plasma", "result": "2.2 ± 0.8", "unit": "h"}, {"measurement": "Tmax", "setting": "plasma, 1200 mg/m^2, Tmax, 1,200 mg/m^2, Day 8, 3 patients, plasma", "result": "1.8 ± 0.3", "unit": "h"}, {"measurement": "Tmax", "setting": "plasma, 1200 mg/m^2, Tmax, 1,200 mg/m^2, Day 29, 3 patients, plasma", "result": "1.7 ± 0.3", "unit": "h"}, {"measurement": "trough plasma level versus IC50 for VEGF and PDGF receptors cellular assay", "setting": "steady-state exposure, 200 mg/m^2, IC50 from ref 16", "result": "above the IC50"}]}]}
